Data taken from ChEMBL document CHEMBL1201862, “PubChem BioAssay data set” (2004).
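Following 48 hours of exposure in 96-well plates, responses at five concentrations were used to interpolate endpoints linearly. GI50 = concentration required for 50% inhibition of growth.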 Activity calls are given as the source filed them. Rule as the data show it: active = GI50 up to about 1.1 µM and inactive = higher.

How the values were obtained:
Assay in all cases: DTP human tumour cell line panel, 48 h
[1] = system: UO-31
[2] = system: MOLT-4
[3] = system: HOP-92
[4] = system: RPMI-8226
[5] = system: OVCAR-4
[6] = system: SF-539
[7] = system: Malme-3M
[8] = system: HCT-15
[9] = system: NCI-H522
[10] = system: SNB-19
[11] = system: HOP-62
[12] = system: HL-60
[13] = system: IGROV-1
[14] = system: OVCAR-8
[15] = system: T47D
[16] = system: OVCAR-3
[17] = system: MDA-N
[18] = system: A549
[19] = system: HCT-116
[20] = system: MDA-MB-231
[21] = system: SK-OV-3
[22] = system: RXF 393
[23] = system: SF-268
[24] = system: BT-549
[25] = system: TK-10
[26] = system: U-251
[27] = system: KM12
[28] = system: NCI-H23
[29] = system: SK-MEL-5
[30] = system: COLO 205
[31] = system: SR
[32] = system: ACHN
[33] = system: SW-620
[34] = system: K562
[35] = system: UACC-62
[36] = system: A498
[37] = system: SK-MEL-2
[38] = system: NCI-H226
[39] = system: SF-295
[40] = system: HT-29
[41] = system: 786-0
[42] = system: SK-MEL-28
[43] = system: LOX IMVI
[44] = system: Hs-578T
[45] = system: SN12C
[46] = system: MCF7
[47] = system: EKVX
[48] = system: UACC-257
[49] = system: MDA-MB-435
[50] = system: CAKI-1
[51] = system: M14
[52] = system: NCI/ADR-RES
[53] = system: DU-145
[54] = system: OVCAR-5
[55] = system: PC-3
[56] = system: HCC 2998
[57] = system: SNB-75
[58] = system: NCI-H460
[59] = system: CCRF-CEM

SMILES: Cn1c2c(c3ccccc31)CCN1C(=O)C3SC21C1C(=O)N(c2ccccc2)C(=O)C31 (stereo not given)
- GI50 [1]: > 100 µM (inactive)
- GI50 [2]: 38.5 µM (inactive)
- GI50 [3]: > 100 µM (inactive)
- GI50 [4]: 38.1 µM (inactive)
- GI50 [5]: > 100 µM (inactive)
- GI50 [6]: 39.7 µM (inactive)
- GI50 [7]: > 100 µM (inactive)
- GI50 [8]: > 100 µM
- GI50 [9]: > 100 µM (inactive)
- GI50 [10]: > 100 µM (inactive)
- GI50 [11]: > 100 µM (inactive)
- GI50 [12]: 25 µM (inactive)
- GI50 [13]: > 100 µM (inactive)
- GI50 [14]: > 100 µM (inactive)
- GI50 [15]: > 100 µM (inactive)
- GI50 [16]: > 100 µM (inactive)
- GI50 [17]: > 100 µM (inactive)
- GI50 [18]: > 100 µM (inactive)
- GI50 [19]: > 100 µM (inactive)
- GI50 [20]: > 100 µM (inactive)
- GI50 [21]: > 100 µM (inactive)
- GI50 [22]: > 100 µM (inactive)
- GI50 [23]: > 100 µM (inactive)
- GI50 [24]: > 100 µM (inactive)
- GI50 [25]: 23.8 µM (inactive)
- GI50 [26]: > 100 µM (inactive)
- GI50 [27]: > 100 µM (inactive)
- GI50 [28]: > 100 µM (inactive)
- GI50 [29]: 20.4 µM (inactive)
- GI50 [30]: 41.8 µM (inactive)
- GI50 [31]: 35.3 µM (inactive)
- GI50 [32]: 33 µM (inactive)
- GI50 [33]: 36.8 µM (inactive)
- GI50 [34]: 40.4 µM (inactive)
- GI50 [35]: 21.5 µM (inactive)
- GI50 [36]: 26.4 µM (inactive)
- GI50 [37]: 0.0256 µM (active)
- GI50 [38]: 40.3 µM (inactive)
- GI50 [39]: > 100 µM (inactive)
- GI50 [40]: > 100 µM (inactive)
- GI50 [41]: > 100 µM (inactive)
- GI50 [42]: 25.4 µM (inactive)
- GI50 [43]: > 100 µM (inactive)
- GI50 [44]: > 100 µM (inactive)
- GI50 [45]: > 100 µM (inactive)
- GI50 [46]: 30.4 µM (inactive)
- GI50 [47]: > 100 µM (inactive)
- GI50 [48]: 20 µM (inactive)
- GI50 [49]: > 100 µM (inactive)
- GI50 [50]: > 100 µM (inactive)
- GI50 [51]: > 100 µM (inactive)
- GI50 [52]: > 100 µM (inactive)
- GI50 [53]: > 100 µM (inactive)
- GI50 [54]: > 100 µM (inactive)

SMILES: COc1ccc(CCNC(=O)Cc2ccccc2CCO)cc1OC
- GI50 [1]: > 100 µM (inactive)
- GI50 [2]: > 100 µM (inactive)
- GI50 [3]: > 100 µM (inactive)
- GI50 [4]: > 100 µM (inactive)
- GI50 [5]: 41.8 µM (inactive)
- GI50 [6]: > 100 µM (inactive)
- GI50 [8]: 14.9 µM
- GI50 [9]: > 100 µM (inactive)
- GI50 [10]: 27.4 µM (inactive)
- GI50 [11]: > 100 µM (inactive)
- GI50 [12]: > 100 µM (inactive)
- GI50 [13]: > 100 µM (inactive)
- GI50 [14]: > 100 µM (inactive)
- GI50 [15]: > 100 µM (inactive)
- GI50 [55]: > 100 µM (inactive)
- GI50 [16]: > 100 µM (inactive)
- GI50 [18]: > 100 µM (inactive)
- GI50 [56]: > 100 µM (inactive)
- GI50 [19]: > 100 µM (inactive)
- GI50 [20]: 38.8 µM (inactive)
- GI50 [21]: > 100 µM (inactive)
- GI50 [22]: > 100 µM (inactive)
- GI50 [23]: > 100 µM (inactive)
- GI50 [24]: > 100 µM (inactive)
- GI50 [25]: > 100 µM (inactive)
- GI50 [26]: > 100 µM (inactive)
- GI50 [27]: > 100 µM (inactive)
- GI50 [28]: > 100 µM (inactive)
- GI50 [29]: > 100 µM (inactive)
- GI50 [30]: > 100 µM (inactive)
- GI50 [31]: > 100 µM (inactive)
- GI50 [32]: > 100 µM (inactive)
- GI50 [33]: > 100 µM (inactive)
- GI50 [34]: > 100 µM (inactive)
- GI50 [35]: > 100 µM (inactive)
- GI50 [36]: > 100 µM (inactive)
- GI50 [37]: > 100 µM (inactive)
- GI50 [38]: > 100 µM (inactive)
- GI50 [39]: > 100 µM (inactive)
- GI50 [40]: > 100 µM (inactive)
- GI50 [41]: > 100 µM (inactive)
- GI50 [42]: 52.7 µM (inactive)
- GI50 [44]: > 100 µM (inactive)
- GI50 [45]: > 100 µM (inactive)
- GI50 [46]: > 100 µM (inactive)
- GI50 [47]: > 100 µM (inactive)
- GI50 [48]: > 100 µM (inactive)
- GI50 [49]: > 100 µM (inactive)
- GI50 [50]: > 100 µM (inactive)
- GI50 [57]: > 100 µM (inactive)
- GI50 [58]: > 100 µM (inactive)
- GI50 [51]: > 100 µM (inactive)
- GI50 [52]: > 100 µM (inactive)
- GI50 [53]: > 100 µM (inactive)
- GI50 [59]: > 100 µM (inactive)
- GI50 [54]: > 100 µM (inactive)
